The source made the active and inactive calls. No cut-off for these calls is given here.
Experiments:
[1] = Acute ulcerogenic activity in Sprague-Dawley male rat assessed as congestion in submucosa at 50 mg/kg/day, po administered for 3 days by hematoxylin and eosin staining method; type: toxicity, organism-based, Stomach; conditions: in vivo, 72 h, time 3 day
Ehrlich [2] = test: Antitumor activity against mouse Ehrlich solid carcinoma cells bearing adult male swiss albino mouse assessed as decrease in tumor weight at 50 mg/kg, po administered every other day and observed at 14 days; type: functional, organism-based; conditions: time 14.0 day
HT-29 [3] = test: Induction of apoptosis in human HT-29 cells assessed as accumulation of cells at viable stage at 0.5 uM incubated for 24 hrs by Annexin V-FITC/propidium iodide staining based flow cytometry analysis (reference value: 91.7%); type: functional
[4] = Selectivity index, ratio of IC50 for cytotoxicity against human MRC5 cells to IC50 for cytotoxicity against human A2780 cells; conditions: MRC5 cells versus A2780 cells
HT-29 [5] = test: Induction of cell cycle arrest in human HT-29 cells assessed as increase the number of cells at S phase at 0.500 uM incubated for 24 hrs by propidium iodide staining based flow cytometry analysis relative to control; type: functional; conditions: dose 0.5 µM
HT-29 [6] = test: Anti-migration activity in human HT-29 cells assessed as suppression in cell migration at 0.500 uM incubated 48 hrs by wound-healing assay; type: functional, cell-based; conditions: dose 0.5 µM
HT-29 [7] = test: Induction of apoptosis in human HT-29 cells assessed as accumulation of cells at early apoptotic stage at 0.5 uM incubated for 24 hrs by Annexin V-FITC/propidium iodide staining based flow cytometry analysis (reference value: 0.1%); type: functional
[8] = biological target: T1, Prostaglandin G/H synthase 1 (Ovis aries, UniProt P05979); test: Inhibition of ovine COX-1
T1 sequence (P05979 whole entry): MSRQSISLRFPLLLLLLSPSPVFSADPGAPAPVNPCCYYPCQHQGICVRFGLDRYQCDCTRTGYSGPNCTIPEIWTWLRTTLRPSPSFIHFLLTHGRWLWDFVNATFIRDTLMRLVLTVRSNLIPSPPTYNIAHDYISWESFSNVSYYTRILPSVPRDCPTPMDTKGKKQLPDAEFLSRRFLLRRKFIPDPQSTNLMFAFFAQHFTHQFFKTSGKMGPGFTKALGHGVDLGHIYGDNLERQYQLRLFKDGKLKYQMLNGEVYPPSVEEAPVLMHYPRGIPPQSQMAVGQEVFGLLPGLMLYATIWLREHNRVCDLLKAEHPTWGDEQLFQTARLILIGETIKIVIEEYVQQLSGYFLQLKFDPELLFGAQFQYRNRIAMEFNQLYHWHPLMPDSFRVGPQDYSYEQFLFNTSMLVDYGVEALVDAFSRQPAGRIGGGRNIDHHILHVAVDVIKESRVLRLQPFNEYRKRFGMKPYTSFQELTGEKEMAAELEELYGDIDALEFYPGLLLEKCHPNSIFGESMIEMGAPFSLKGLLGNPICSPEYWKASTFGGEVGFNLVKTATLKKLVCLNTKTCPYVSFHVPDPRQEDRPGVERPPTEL

Rattus norvegicus [9] = test: Antiinflammatory activity against carrageenan-induced paw edema Sprague-Dawley rat model assessed as inhibition of paw edema by measuring edema thickness at 50 mg/kg, po measured after 1 hr (reference value: 0.71 +/- 0.03 mm); type: functional
[10] = Acute ulcerogenic activity in Sprague-Dawley male rat assessed as change in normal non keratinized gastric mucosa at 50 mg/kg/day, po administered for 3 days by hematoxylin and eosin staining method; type: toxicity, organism-based, Stomach; conditions: in vivo, 72 h, time 3 day
Ehrlich [11] = test: Antitumor activity against mouse Ehrlich solid carcinoma cells bearing adult male swiss albino mouse assessed as tumor growth inhibition at 50 mg/kg, po administered every other day and observed at 13 days relative to control; type: functional; conditions: 312 h, time 13 day, read-out: TGI
Rattus norvegicus [12] = test: Antiinflammatory activity against carrageenan-induced paw edema Sprague-Dawley rat model assessed as inhibition of inflammation at 50 mg/kg, po after 3 hrs relative to control; type: functional; parameters: scale not given: the % may be the effect or the level left
Rattus norvegicus [13] = test: Antiinflammatory activity against carrageenan-induced paw edema Sprague-Dawley rat model assessed as inhibition of inflammation at 50 mg/kg, po after 5 hrs relative to control; type: functional; parameters: scale not given: the % may be the effect or the level left
Rattus norvegicus [14] = test: Antiinflammatory activity against carrageenan-induced paw edema Sprague-Dawley rat model assessed as inhibition of inflammation at 50 mg/kg, po after 1 hr relative to control; type: functional; parameters: scale not given: the % may be the effect or the level left
HT-29 [15] = test: Anticlonogenic activity against human HT-29 cells assessed as reduction in number of colonies at 0.500 uM incubated for 24 hrs by clonogenic survival assay; type: functional, cell-based; conditions: dose 0.5 µM
Ehrlich [16] = test: Antitumor activity against mouse Ehrlich solid carcinoma cells bearing adult male swiss albino mouse assessed as decrease in tumor volume at 50 mg/kg, po administered every other day and observed at 5 days; type: functional, organism-based; conditions: time 5.0 day
[17] = Acute ulcerogenic activity in Sprague-Dawley male rat assessed as ulcer index at 50 mg/kg/day, po administered for 3 days; type: toxicity, organism-based; conditions: in vivo, 72 h, time 3 day
[18] = Acute ulcerogenic activity in Sprague-Dawley male rat assessed as average number of ulcers at 50 mg/kg/day, po administered for 3 days; type: toxicity, organism-based; conditions: in vivo, 72 h, time 3 day
Sus scrofa = species: Sus scrofa; test: Inhibition of porcine brain tubulin polymerization at 1 uM by fluorescence-based tubulin polymerization assay
[19] = Acute ulcerogenic activity in Sprague-Dawley male rat assessed as incidence of ulcer/10 animal at 50 mg/kg/day, po administered for 3 days; type: toxicity, organism-based; conditions: in vivo, 72 h, time 3 day
Ehrlich [20] = test: Antitumor activity against mouse Ehrlich solid carcinoma cells bearing adult male swiss albino mouse assessed as decrease in tumor volume at 50 mg/kg, po administered every other day and observed at 9 days; type: functional, organism-based; conditions: time 9.0 day
HT-29 [21] = test: Induction of cell cycle arrest in human HT-29 cells assessed as increase the number of cells at G2/M phase at 0.500 uM incubated for 24 hrs by propidium iodide staining based flow cytometry analysis relative to control; type: functional; conditions: dose 0.5 µM
MCF7 = test: Cytotoxicity against human MCF7 cells assessed as inhibition in cell growth incubated for 72 hrs by MTT assay; type: functional, cell-based; conditions: MCF7, 72 h
HT-29 [22] = test: Cytotoxicity against human HT-29 cells assessed as inhibition in cell growth incubated for 72 hrs by MTT assay; type: functional, cell-based; conditions: HT-29, 72 h
[23] = Acute ulcerogenic activity in Sprague-Dawley male rat assessed as congestion in edema at 50 mg/kg/day, po administered for 3 days by hematoxylin and eosin staining method; type: toxicity, organism-based; conditions: in vivo, 72 h, time 3 day
[24] = Selectivity index, ratio of IC50 for cytotoxicity against human MRC5 cells to IC50 for cytotoxicity against human MCF7 cells; conditions: MRC5 cells versus MCF7 cells
Ehrlich [25] = test: Antitumor activity against mouse Ehrlich solid carcinoma cells bearing adult male swiss albino mouse assessed as decrease in tumor volume at 50 mg/kg, po administered every other day and observed at 13 days; type: functional, organism-based; conditions: time 13.0 day
[26] = Acute ulcerogenic activity in Sprague-Dawley male rat assessed as change in hyperactive glands at 50 mg/kg/day, po administered for 3 days by hematoxylin and eosin staining method; type: toxicity, organism-based, Stomach; conditions: in vivo, 72 h, time 3 day
[27] = Acute ulcerogenic activity in Sprague-Dawley male rat assessed as average severity of ulcers at 50 mg/kg/day, po administered for 3 days; type: toxicity, organism-based; conditions: in vivo, 72 h, time 3 day
[28] = Cytotoxicity against human MRC5 cells assessed as inhibition in cell growth incubated for 72 hrs by MTT assay; type: toxicity, cell-based
HT-29 [29] = test: Induction of apoptosis in human HT-29 cells assessed as accumulation of cells at necrotic stage at 0.5 uM incubated for 24 hrs by Annexin V-FITC/propidium iodide staining based flow cytometry analysis (reference value: 8.1%); type: functional
Rattus norvegicus [30] = test: Antiinflammatory activity against carrageenan-induced paw edema Sprague-Dawley rat model assessed as inhibition of paw edema by measuring edema thickness at 50 mg/kg, po measured after 3 hrs (reference value: 1.41 +/- 0.13 mm); type: functional
HT-29 [31] = test: Induction of apoptosis in human HT-29 cells assessed as accumulation of cells at late apoptotic stage at 0.5 uM incubated for 24 hrs by Annexin V-FITC/propidium iodide staining based flow cytometry analysis (reference value: 0.2%); type: functional
[32] = Acute ulcerogenic activity in Sprague-Dawley male rat assessed as change in normal keratinized gastric mucosa at 50 mg/kg/day, po administered for 3 days by hematoxylin and eosin staining method; type: toxicity, organism-based, Stomach; conditions: in vivo, 72 h, time 3 day
Rattus norvegicus [33] = test: Antiinflammatory activity against carrageenan-induced paw edema Sprague-Dawley rat model assessed as inhibition of paw edema by measuring edema thickness at 50 mg/kg, po measured after 5 hrs (reference value: 1.39 +/- 0.11 mm); type: functional
[34] = Selectivity index, ratio of IC50 for cytotoxicity against human MRC5 cells to IC50 for cytotoxicity against human HT-29 cells; conditions: MRC5 cells versus HT-29 cells
A2780 = test: Cytotoxicity against human A2780 cells assessed as inhibition in cell growth incubated for 72 hrs by MTT assay; type: functional, cell-based; conditions: A2780, 72 h
[35] = Acute ulcerogenic activity in Sprague-Dawley male rat assessed as congestion in intact mucosa at 50 mg/kg/day, po administered for 3 days by hematoxylin and eosin staining method; type: toxicity, organism-based, Stomach; conditions: in vivo, 72 h, time 3 day
[36] = Acute ulcerogenic activity in Sprague-Dawley male rat by measuring filtration of inflammatory cells in edema at 50 mg/kg/day, po administered for 3 days by hematoxylin and eosin staining method; type: toxicity, organism-based, Stomach; conditions: in vivo, 72 h, time 3 day
[37] = Acute ulcerogenic activity in Sprague-Dawley male rat assessed as nonactivated glands in intact mucosa at 50 mg/kg/day, po administered for 3 days by hematoxylin and eosin staining method; type: toxicity, organism-based, Stomach; conditions: in vivo, 72 h, time 3 day

Cc1ccc(C2SCC(=O)N2c2ccc(OCC(=O)Nc3ccc(F)cc3)cc2)cc1 (configuration not stated)
Activity [1]: Toxic
Activity (Ehrlich [2]): Active
Activity (HT-29 [3]): 76.2%
selectivity ratio at 72 h [4]: 0.23
Activity (HT-29 [5]): 6.8%
Activity (HT-29 [6]): Active
Activity (HT-29 [7]): 10%
IC50 [8]: 2.11 µM
Activity (Rattus norvegicus [9]): 0.59 mm
Activity [10]: Non-Toxic
inhibition in vivo at 50 mg/kg (Ehrlich [11]): 57.2%
Activity (Rattus norvegicus [12]): 32.7%
Activity (Rattus norvegicus [13]): 58.99%
Activity (Rattus norvegicus [14]): 15.3%
Activity (HT-29 [15]): Active
Activity (Ehrlich [16]): Active
UI [17]: 14.27
Activity [18]: 1.67
inhibition (Sus scrofa): inactive
Activity [19]: 10%
Activity (Ehrlich [20]): Active
Activity (HT-29 [21]): 15.6%
IC50 (MCF7): 0.81 µM
IC50 (HT-29 [22]): 0.46 µM
Activity [23]: Toxic
selectivity ratio at 72 h [24]: 3.04
Activity (Ehrlich [25]): Active
Activity [26]: Non-Toxic
Activity [27]: 2.6
IC50 at 72 h [28]: 2.46 µM
Activity (HT-29 [29]): 7.7%
Activity (Rattus norvegicus [30]): 0.55 mm
Activity (HT-29 [31]): 6.1%
Activity [32]: Non-Toxic
Activity (Rattus norvegicus [33]): 0.57 mm
selectivity ratio at 72 h [34]: 5.35
IC50 (A2780): 10.5 µM

Cc1ccc(-c2cc(C(F)(F)F)nn2-c2ccc(S(N)(=O)=O)cc2)cc1 [CELECOXIB]
Activity [35]: Toxic
Activity (Rattus norvegicus [9]): 0.27 mm
Activity [36]: Non-Toxic
Activity (Rattus norvegicus [13]): 64.03%
Activity (Rattus norvegicus [14]): 61.97%
UI [17]: 8.34
Activity [18]: 0.67
Activity [19]: 6.67%
IC50 (MCF7): 15.4 µM
IC50 (HT-29 [22]): 32.5 µM
Activity [27]: 1
Activity (Rattus norvegicus [30]): 0.34 mm
Activity [37]: Non-Toxic
Activity (Rattus norvegicus [33]): 0.5 mm
IC50 (A2780): 18.1 µM

— ChEMBL document CHEMBL5625227, “Discovery and optimization of 2,3-diaryl-1,3-thiazolidin-4-one-based derivatives as potent and selective cytotoxic agents with anti-inflammatory activity” (Eur J Med Chem, 2023)
